Experimental data reported in patent US6787525B1, “Glyceryl nucleotides, method for the production thereof and their use” (priority 1998, dated 2004).

Columns and labels:
HCC-2998 = test: In vitro cytostatic effect (SRB): HCC-2998, Intestinal cancer
UO-31 = test: In vitro cytostatic effect (SRB): UO-31, Kidney cancer
HOP-92 = test: In vitro cytostatic effect (SRB): HOP-92, Lung cancer
[1] = read-out: LC50, 48-hour incubation

CCCCCCCCCCCCCCCCCCOC(COP(=O)(O)OCC1OC(n2cc(F)c(=O)[nH]c2=O)CC1O)COP(=O)(O)OCC1OC(n2ccc(N)nc2=O)C(O)C1O (racemic) [NSC 698688-A/1, arabinocytidylyl-(5′→1)-2-O-octadecyl-rac-glycerylyl-(3→5′)-5-fluoro-2′-deoxyuridine]
GI50 (HCC-2998; 48-hour incubation): 0.0588 µM
TGI (HCC-2998; 48-hour incubation): 3.50E − 05 mol/l
CC50 (HCC-2998; [1]): > 100 µM
GI50 (UO-31; 48-hour incubation): 21.3 µM
TGI (UO-31; 48-hour incubation): >1.00E − 04 mol/l
CC50 (UO-31; [1]): > 100 µM
GI50 (HOP-92; 48-hour incubation): 0.0802 µM
TGI (HOP-92; 48-hour incubation): 8.99E − 05 mol/l
CC50 (HOP-92; [1]): > 100 µM
